# Earlier results in patent US10639343B2, “Preparation method of Gynostemma pentaphyllum leaves extract and Gynostemma pentaphyllum extract prepared by the method thereof” (BTC CORPORATION, priority 2018, dated 2020).
# Conditions: intraperitoneal injection, without training
smiles,measurement,value
"NC(=O)c1ncn([C@@H]2O[C@H](COP(=O)(O)O)[C@@H](O)[C@H]2O)c1N [AICAR, 5-aminoimidazole-4-carboxamide ribonucleotide]",increase of the distance of exercise performance,44%
